For 42 compounds, IC50 results are on record in US10144706B2 (BRISTOL-MYERS SQUIBB COMPANY, priority 2016, dated 2018).

For the first assay, the target named is T1, PD-1/PD-L1 interaction (PD-1-Ig / PD-L1-His) (Homo sapiens, UniProt Q9NZQ7).
T1 construct: hPDL1(18-239)-TVMV-His; TVMV protease site linker (C); made in house; host or cells: HEK293T
T1 sequence (Q9NZQ7 with tags, fused parts or gaps): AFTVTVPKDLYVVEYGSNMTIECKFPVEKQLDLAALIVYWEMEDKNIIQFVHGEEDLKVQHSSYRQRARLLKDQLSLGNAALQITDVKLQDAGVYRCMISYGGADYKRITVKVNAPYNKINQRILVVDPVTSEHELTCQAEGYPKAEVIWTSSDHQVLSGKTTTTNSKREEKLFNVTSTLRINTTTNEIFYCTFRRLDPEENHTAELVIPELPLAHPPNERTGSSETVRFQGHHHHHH
As to the kind of experiment: PD-1/PD-L1 Homogenous Time-Resolved Fluorescence (HTRF) binding assay. The settings on record: IC50 range class; PD-L1-His 10 nM, PD-1-Ig 20 nM; read-out: Range or IC50. The method, boiled down:
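Human PD-L1-His (10 nM final) was pre-incubated with inhibitor for 15 min, then PD-1-Ig (20 nM final) was added for a further 15 min in dPBS with 0.1% BSA and 0.05% Tween-20. Binding was detected by HTRF using Eu-cryptate anti-Ig (1 nM) and APC anti-His (20 nM).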
On the technique in general: Time-resolved FRET reads energy transfer from a long-lived donor to a nearby acceptor.
The IC50 is the midpoint of a concentration-inhibition curve. For `Cc1c(COc2cc(OCc3cncc(C#N)c3)c(CO)cc2Cl)cccc1-c1cccc(COc2cc(OCc3cncc(C#N)c3)c(CN[C@@H](C(=O)O)[C@@H](C)O)cc2Cl)c1C` [Example 50190], the half-inhibitory concentration (IC50) was 0.04 to 20 nM.

With `Cc1c(COc2cc(OCc3cncc(C#N)c3)c(CO)cc2Cl)cccc1-c1cccc(COc2cc(OCc3cncc(C#N)c3)c(CNC(C(=O)O)C(C)O)cc2Cl)c1C` (stereo not drawn) [Example 50200], the IC50 was in the range of 0.04 to 20 nM.

As to `Cc1c(COc2cc(OCc3cncc(C#N)c3)c(CO)cc2Cl)cccc1-c1cccc(COc2cc(OCc3cncc(C#N)c3)c(CN[C@H](CCO)C(=O)O)cc2Cl)c1C` [Example 50210], the IC50 is 0.04 to 20 nM.

For `Cc1c(COc2cc(OCc3cncc(C#N)c3)c(CO)cc2Cl)cccc1-c1cccc(COc2cc(OCc3cncc(C#N)c3)c(CNC(C(=O)O)C(=O)O)cc2Cl)c1C` [Example 50220], the IC50 lay within 0.04 to 20 nM.

Take `Cc1c(COc2cc(OCc3cncc(C#N)c3)c(CO)cc2Cl)cccc1-c1cccc(COc2cc(OCc3cncc(C#N)c3)c(CN[C@H](C(=O)O)[C@H](C)O)cc2Cl)c1C` [Example 50230]: the IC50 was 0.04 to 20 nM.

`Cc1c(COc2cc(OCc3cncc(C#N)c3)c(CO)cc2Cl)cccc1-c1cccc(COc2cc(OCc3cncc(C#N)c3)c(CN[C@H](CO)C(=O)O)cc2Cl)c1C` [Example 50240]: the IC50 lay within 0.04 to 20 nM.

Consider `Cc1c(COc2cc(OCc3cncc(C#N)c3)c(CO)cc2Cl)cccc1-c1cccc(COc2cc(OCc3cncc(C#N)c3)c(CN[C@@H](C(=O)O)[C@H](C)O)cc2Cl)c1C` [Example 50250], for which the IC50 lay in the range of 0.04 to 20 nM.

`Cc1c(COc2cc(OCc3cncc(C#N)c3)c(CO)cc2Cl)cccc1-c1cccc(COc2cc(OCc3cncc(C#N)c3)c(CNCC(O)C(=O)O)cc2Cl)c1C` (stereo not drawn) [Example 50300]: the IC50 was in the range of 0.04 to 20 nM.

With `Cc1c(COc2cc(OCc3cncc(C#N)c3)c(CO)cc2Cl)cccc1-c1cccc(COc2cc(OCc3cncc(C#N)c3)c(CN[C@@H](CO)CC(=O)O)cc2Cl)c1C` [Example 50310], the IC50 lay within 20.1 to 90 nM.

In the case of `Cc1c(COc2cc(OCc3cncc(C#N)c3)c(CO)cc2Cl)cccc1-c1cccc(COc2cc(OCc3cncc(C#N)c3)c(CN[C@H](CO)CC(=O)O)cc2Cl)c1C` [Example 50330], the IC50 was in the range of 0.04 to 20 nM.

Turning to `Cc1c(COc2cc(OCc3cncc(C#N)c3)c(CO)cc2Cl)cccc1-c1cccc(COc2cc(OCc3cncc(C#N)c3)c(CN[C@H](C(=O)O)[C@@H](C)[C@H](C)O)cc2Cl)c1C` [Example 50340], the IC50 lay within 0.04 to 20 nM.

`Cc1c(COc2cc(OCc3cncc(C#N)c3)c(CO)cc2Cl)cccc1-c1cccc(COc2cc(OCc3cncc(C#N)c3)c(CN[C@@H](CCO)C(=O)O)cc2Cl)c1C` [Example 50360]: the IC50 lay within 0.04 to 20 nM.

Turning to `CC(CO)(NCc1cc(Cl)c(OCc2cccc(-c3cccc(COc4cc(OCc5cncc(C#N)c5)c(CO)cc4Cl)c3Cl)c2Cl)cc1OCc1cncc(C#N)c1)C(=O)O` (stereo not drawn) [Example 50380], the IC50 lay in the range of 0.04 to 20 nM.

In the case of `C[C@](CO)(NCc1cc(Cl)c(OCc2cccc(-c3cccc(COc4cc(OCc5cncc(C#N)c5)c(CO)cc4Cl)c3Cl)c2Cl)cc1OCc1cncc(C#N)c1)C(=O)O` [Example 50400], the IC50 is 0.04 to 20 nM.

As to `CC(=O)c1cc(Cl)c(OCc2cccc(-c3cccc(COc4cc(OCc5cncc(C#N)c5)c(CN[C@](C)(CO)C(=O)O)cc4Cl)c3C)c2C)cc1OCc1cncc(C#N)c1` [Example 60010], the IC50 fell in the range of 0.04 to 20 nM.

For the compound `CC(=O)c1cc(Cl)c(OCc2cccc(-c3cccc(COc4cc(OCc5cncc(C#N)c5)c(CN[C@H](C(=O)O)[C@@H](C)O)cc4Cl)c3C)c2C)cc1OCc1cncc(C#N)c1` [Example 60020], the IC50 is 0.04 to 20 nM.

For the compound `CC(=O)c1cc(Cl)c(OCc2cccc(-c3cccc(COc4cc(OCc5cncc(C#N)c5)c(CN[C@](C)(CO)C(=O)O)cc4Cl)c3Cl)c2Cl)cc1OCc1cncc(C#N)c1` [Example 60040], the IC50 fell in the range of 0.04 to 20 nM.

Regarding `CC(=O)c1cc(Cl)c(OCc2cccc(-c3cccc(COc4cc(OCc5cncc(C#N)c5)c(CN[C@H](C(=O)O)[C@@H](C)[C@H](C)O)cc4Cl)c3C)c2C)cc1OCc1cncc(C#N)c1` [Example 60050], the IC50 fell in the range of 0.04 to 20 nM.

Take `CC(=O)c1cc(Cl)c(OCc2cccc(-c3cccc(COc4cc(OCc5cncc(C#N)c5)c(CNC(C)(CO)C(=O)O)cc4Cl)c3Cl)c2Cl)cc1OCc1cncc(C#N)c1` (stereo not drawn) [Example 60060]: the IC50 lay within 0.04 to 20 nM.

Turning to `CC(=O)c1cc(Cl)c(OCc2cccc(-c3cccc(COc4cc(OCc5cncc(C#N)c5)c(CN[C@@](C)(CO)C(=O)O)cc4Cl)c3C)c2C)cc1OCc1cncc(C#N)c1` [Example 60070], the IC50 lay within 0.04 to 20 nM.

With `CC(=O)c1cc(Cl)c(OCc2cccc(-c3cccc(COc4cc(OCc5cncc(C#N)c5)c(CN[C@@](C)(CO)C(=O)O)cc4Cl)c3Cl)c2Cl)cc1OCc1cncc(C#N)c1` [Example 60080], the IC50 lay in the range of 0.04 to 20 nM.

On to `CC(=O)c1cc(Cl)c(OCc2cccc(-c3cccc(COc4cc(OCc5cncc(C#N)c5)c(CN[C@@H](C(=O)O)[C@H](C)O)cc4Cl)c3C)c2C)cc1OCc1cncc(C#N)c1` [Example 60090], for which the IC50 is 20.1 to 90 nM.

Regarding `Cc1c(COc2cc(OCc3cncc(C#N)c3)c(Cl)cc2Cl)cccc1-c1cccc(COc2cc(OCc3cncc(C#N)c3)c(CN[C@H](C(=O)O)[C@@H](C)O)cc2Cl)c1C` [Example 70010], the IC50 lay within 90.1 to 1000 nM.

For the compound `Cc1c(COc2cc(OCc3cncc(C#N)c3)c(Cl)cc2Cl)cccc1-c1cccc(COc2cc(OCc3cncc(C#N)c3)c(CN[C@](C)(CO)C(=O)O)cc2Cl)c1C` [Example 70020], the IC50 fell in the range of 0.04 to 20 nM.

In the case of `Cc1c(COc2cc(OCc3cncc(C#N)c3)c(Cl)cc2Cl)cccc1-c1cccc(COc2cc(OCc3cncc(C#N)c3)c(CNC(C)(CO)C(=O)O)cc2Cl)c1C` (stereo not drawn) [Example 70030], the IC50 was 20.1 to 90 nM.

`Cc1c(COc2cc(OCc3cncc(C#N)c3)c(Cl)cc2Cl)cccc1-c1cccc(COc2cc(OCc3cncc(C#N)c3)c(CN[C@H](C(=O)O)[C@@H](C)[C@H](C)O)cc2Cl)c1C` [Example 70050]: the IC50 was 90.1 to 1000 nM.

`Cc1c(COc2cc(OCc3cncc(C#N)c3)c(Cl)cc2Cl)cccc1-c1cccc(COc2cc(OCc3cncc(C#N)c3)c(CN[C@@](C)(CO)C(=O)O)cc2Cl)c1C` [Example 70060]: the concentration for half-maximal inhibition (IC50) lay within 20.1 to 90 nM.

In the case of `N#Cc1cncc(COc2cc(OCc3cccc(-c4cccc(COc5cc(OCc6cncc(C#N)c6)c(C(=O)N6CCC(=O)CC6)cc5Cl)c4Cl)c3Cl)c(Cl)cc2C(=O)N2CCC(=O)CC2)c1` [Example 80010], the IC50 lay within 20.1 to 90 nM.

For the compound `N#Cc1cncc(COc2cc(OCc3cccc(-c4cccc(COc5cc(OCc6cncc(C#N)c6)c(C(=O)NCCCO)cc5Cl)c4Cl)c3Cl)c(Cl)cc2C(=O)NCCCO)c1` [Example 80020], the IC50 lay within 90.1 to 1000 nM.

For `CN1CCN(C(=O)c2cc(Cl)c(OCc3cccc(-c4cccc(COc5cc(OCc6cncc(C#N)c6)c(C(=O)N6CCN(C)CC6)cc5Cl)c4Cl)c3Cl)cc2OCc2cncc(C#N)c2)CC1` [Example 80030], the IC50 was 0.04 to 20 nM.

Consider `N#Cc1cncc(COc2cc(OCc3cccc(-c4cccc(COc5cc(OCc6cncc(C#N)c6)c(C(=O)N6CCCC(O)C6)cc5Cl)c4Cl)c3Cl)c(Cl)cc2C(=O)N2CCCC(O)C2)c1` (stereo not drawn) [Example 80040], for which the IC50 was in the range of 20.1 to 90 nM.

On to `N#Cc1cncc(COc2cc(OCc3cccc(-c4cccc(COc5cc(OCc6cncc(C#N)c6)c(C(=O)N6CCOCC6)cc5Cl)c4Cl)c3Cl)c(Cl)cc2C(=O)N2CCOCC2)c1` [Example 80050], for which the IC50 is 20.1 to 90 nM.

For the compound `N#Cc1cncc(COc2cc(OCc3cccc(-c4cccc(COc5cc(OCc6cncc(C#N)c6)c(C(=O)N6CCC(O)CC6)cc5Cl)c4Cl)c3Cl)c(Cl)cc2C(=O)N2CCC(O)CC2)c1` [Example 80060], the IC50 was in the range of 0.04 to 20 nM.

In the case of `Cc1c(COc2cc(OCc3cncc(C#N)c3)c(C(=O)NCc3ccncn3)cc2Cl)cccc1-c1cccc(COc2cc(OCc3cncc(C#N)c3)c(C(=O)NCc3ccncn3)cc2Cl)c1C` [Example 80090], the half-maximal inhibitory concentration (IC50) was in the range of 90.1 to 1000 nM.

In the case of `Cc1c(COc2cc(OCc3cncc(C#N)c3)c(C(=O)N3CCOCC3)cc2Cl)cccc1-c1cccc(COc2cc(OCc3cncc(C#N)c3)c(C(=O)N3CCOCC3)cc2Cl)c1C` [Example 80100], the IC50 was 0.04 to 20 nM.

Regarding `N#Cc1cncc(COc2cc(OCc3cccc(-c4cccc(COc5cc(OCc6cncc(C#N)c6)c(C(=O)N6CCS(=O)(=O)CC6)cc5Cl)c4Cl)c3Cl)c(Cl)cc2C(=O)N2CCS(=O)(=O)CC2)c1` [Example 80140], the concentration for half-maximal inhibition (IC50) lay in the range of 0.04 to 20 nM.

`N#Cc1cncc(COc2cc(OCc3cccc(-c4cccc(COc5cc(OCc6cncc(C#N)c6)c(C(=O)NCC6(CO)CC6)cc5Cl)c4Cl)c3Cl)c(Cl)cc2C(=O)NCC2(CO)CC2)c1` [Example 80160]: the IC50 fell in the range of 1000 to 10000 nM.

For `N#Cc1cncc(COc2cc(OCc3cccc(-c4cccc(COc5cc(OCc6cncc(C#N)c6)c(C(=O)NC6COC6)cc5Cl)c4Cl)c3Cl)c(Cl)cc2C(=O)NC2COC2)c1` [Example 80180], the concentration for half-maximal inhibition (IC50) was 1000 to 10000 nM.

The same assay, now with this note: numeric IC50; PD-L1-His 10 nM, PD-1-Ig 20 nM; read-out: Range or IC50.
Regarding `Cc1c(COc2cc(OCc3cncc(C#N)c3)c(CO)cc2Cl)cccc1-c1cccc(COc2cc(OCc3cncc(C#N)c3)c(CNC(C(=O)O)C(=O)O)cc2Cl)c1C` [Example 50270], the IC50 was 23 nM.

In the case of `CC(=O)c1cc(Cl)c(OCc2cccc(-c3cccc(COc4cc(OCc5cncc(C#N)c5)c(CNC(C)(CO)C(=O)O)cc4Cl)c3C)c2C)cc1OCc1cncc(C#N)c1` (stereo not drawn) [Example 60030], the IC50 came out at 6 nM.

Turning to `Cc1c(COc2cc(OCc3cncc(C#N)c3)c(Cl)cc2Cl)cccc1-c1cccc(COc2cc(OCc3cncc(C#N)c3)c(CN[C@@H](C(=O)O)[C@H](C)O)cc2Cl)c1C` [Example 70040], the IC50 came to 1050 nM.

Turning to `CC1CCN(C(=O)c2cc(Cl)c(OCc3cccc(-c4cccc(COc5cc(OCc6cncc(C#N)c6)c(C(=O)N6CCC(C)CC6)cc5Cl)c4Cl)c3Cl)cc2OCc2cncc(C#N)c2)CC1` [Example 80120], the IC50 is 105 nM.
